Measured values: PMC10870298, “Rational Design of Antifungal Peptides Based on the γ-Core Motif of a Neosartorya (Aspergillus) fischeri Antifungal Protein to Improve Structural Integrity, Efficacy, and Spectrum” (ACS Omega, 2024)
Read-outs that look alike come from different tables or passages of the source. Residues, ends and D or L forms follow the SMILES beside them. *: point of attachment. tBu = CC(C)(C)*

Columns and labels:
A. fumigatus CBS 101355 = type: cell-based, Aspergillus fumigatus
Protocol: (§1) The lyophilized and stored peptides were dissolved in sterile ddH2O (5 mg mL^–1). Then, half of the volume of the peptide stock was tested for antifungal activity and stored at −20 °C until RP-HPLC and ECD analyses. This peptide sample is termed the −20 °C sample. The other half volume of the stock was stored at 4 °C for 7 days, tested for antifungal activity, and stored at −20 °C until RP-HPLC and ECD analyses. This peptide sample is referred to as the 4 °C sample.
(§2) MICs of NFAP γ-core peptide derivatives were determined against C. albicans SC5314 and A. fumigatus CBS 101355. These fungi were maintained on yeast peptone dextrose agar (YPD: 10 g L^–1 yeast extract, 20 g L^–1 peptone, 20 g L^–1D-glucose, 15 g L^–1 agar) and malt extract agar (MEA, Sigma-Aldrich) slants at 4 °C, respectively. Susceptibility tests were performed in low cationic medium (LCM: 5 g L^–1D-glucose, 0.25 g L^–1 yeast extract, 0.125 g L^–1 peptone) according to Tóth et al. (2018)[16] and Tóth et al. (2020)[19] for yeasts and molds, respectively, with slight modifications. Briefly, 100 μL NFAP γ-core peptide (0.39–400 μg mL^–1 in two-fold serial dilutions in LCM) was mixed with 100 μL of 2 × 10^5 mL^–1 mid-log phase C. albicans cells or freshly harvested A. fumigatus conidia in LCM in a flat-bottom 96-well microtiter plate (TC Plate 96 Well, Suspension, F; Sarstedt, Nümbrecht, Germany). A mixture of 100 μL of medium (LCM) without NFAP γ-core peptide derivative and 100 μL of cell or conidium suspension served as the untreated growth control, whereas 200 μL of LCM was used for background calibration. The plates were incubated statically for 48 h (C. albicans) or 72 h (A. fumigatus) at 30 °C. The absorbance (OD620) of each well was measured after shaking for 5 s using a microtiter plate reader (SPECTROstar Nano; BMG Labtech, Ortenberg, Germany). The absorbance of the untreated control was taken as 100% growth for the MIC calculation. MIC was defined as the lowest peptide concentration that reduced fungal growth by […] compared with the untreated control. Susceptibility tests were performed in two technical replicates and were repeated at least two times.

C. albicans SC5314 [1] = type: cell-based, Candida albicans; details: SC5314, 48 h
Protocol: as §1, §2

[2] = Structural integrity (disulfide bridge formation on storage) by RP-HPLC; type: physicochemical
Protocol: The half volume of the dissolved lyophilized peptides was promptly stored at −20 °C for 7 days. The other half volume of these peptides was stored at 4 °C for 7 days (oxidative condition) and then at −20 °C until RP-HPLC and electronic circular dichroism (ECD) analyses were performed. Herein, these peptide samples are referred to as −20 and 4 °C samples, respectively.
as §1
Crude peptides were purified by semipreparative RP-HPLC using a solvent system of (A) 0.1% TFA and (B) 80% acetonitrile, 0.1% TFA, and a linear gradient from 0 to 30% (B) in 60 min. Purification was performed on a Phenomenex Jupiter Proteo 90 Å column (250 × 10 mm) using a Shimadzu HPLC apparatus (Berlin, Germany). Absorbance was detected at 220 nm. Purity was evaluated by analytical RP-HPLC using a Phenomenex Luna 10 μ C18 100 A column and an Agilent 1100 HPLC instrument (Palo Alto, CA, USA).

C. albicans SC5314 [3] = experiment: Cell-killing efficacy: growth kinetics of high-density culture and drop viability on YPD agar; type: cell-based, Candida albicans; details: for growth of high-density C. albicans culture: OD600 = 0.2 mid-log cells, LCM, 30 °C, 24 h; for proportion of cells able to multiply (culture drops on YPD agar after treatment): 24 h treatment at 30 °C, then 5 μL drops on YPD agar 24 h at 30 °C
Protocol: Compared with MIC determination, monitoring the growth kinetics of high-density cell cultures in the presence of various peptide concentrations allows for detailed insight into the cell-killing efficacy over time and how cysteine modifications influence it. Therefore, the growth of high-density C. albicans cell culture (OD600 = 0.2) was monitored in the presence of 0.5× MIC, 1× MIC, and 2× MIC of the NFAP γ-core peptides.
The experiment was conducted in a flat-bottom 96-well microtiter plate (TC Plate 96 Well, Suspension, F; Sarstedt, Nümbrecht, Germany): 100 μL of OD600 = 0.2 mid-log phase cells prepared in LCM were mixed with 100 μL of 1× MIC, 2× MIC, or 4× MIC of the peptide diluted in LCM. The plates were incubated statically at 30 °C for 24 h. The absorbance (OD600) of each well was then measured after shaking for 5 s every hour using a microtiter plate reader (BioTek Synergy HTX Multi-Mode Microplate Reader; Agilent Technologies, Santa Clara, CA, USA). Untreated cells (100 μL LCM mixed with 100 μL OD600 = 0.2 mid-log phase cells prepared in LCM) served as growth controls. To examine the viability of the treated C. albicans cells, 5–5 μL cultures from each well were dropped onto the YPD agar plate after the last OD600 measurement and allowed to dry before incubation at 30 °C for 24 h. The plates were photographed (Versa Doc Imaging System 4000 MP; Bio-Rad, Hercules, CA, USA). These experiments were repeated two times, involving three technical replicates.

[4] = test system: human cell lines (monocytes, colonic epithelial cells, keratinocytes); details: cited from earlier work
From the text: (§3) The clinical application of antimicrobial peptides is limited by their potential hemolytic activity, toxicity, immunogenicity, and other side effects.[27] […] Herein, we investigated how cysteine–serine substitution(s) and S-tert-butylation of these peptides influence hemolytic activ ...

sheep blood = details: cited from earlier work
From the text: as §3

[5] = test system: plant pathogenic filamentous fungi; details: previous studies; cited from earlier work
From the text: Presumably, these peptides exert an antifungal mechanism through membrane disruption,[17] and the high positive net charge supports this mechanism. Additionally, neither hydrop ...

[6] = 4 °C sample: 5 mg mL^–1 in sterile ddH2O stored at 4 °C for 7 days (oxidative condition)
[7] = 1 and 2× MIC, OD600 hourly, repeated two times, three technical replicates

Compound: CC[C@H](C)[C@H](NC(=O)[C@H](CCCCN)NC(=O)[C@H](CS)NC(=O)[C@H](CCCCN)NC(=O)[C@@H](NC(=O)[C@H](CCCCN)NC(=O)[C@@H](NC(=O)[C@H](CCC(=O)O)NC(C)=O)[C@@H](C)CC)[C@@H](C)CC)C(=O)N[C@@H](CCCCN)C(=O)N[C@@H](CCCCN)C(=O)N[C@H](C(=O)N[C@@H](CCCCN)C(=O)N[C@@H](CS)C(=O)N[C@@H](CCCCN)C(N)=O)[C@@H](C)CC [NFAPimpγGZ] (Ac-EIKIKCKIKKIKCK-NH2)
- MIC (A. fumigatus CBS 101355; CBS 101355, 72 h): 25 μg mL^–1
- MIC (C. albicans SC5314 [1]): 12.5 μg mL^–1
- oxidation / disulfide bridge formation (in words) [2, 6]: fully oxidized to the cyclic form
- share of the peptide with intermolecular disulfide bridges (in words) ([2]; –20 °C sample): one-third
- share of the peptide with intramolecular disulfide bridges (in words) ([2]; –20 °C sample): approximately one-third
- growth of high-density C. albicans culture (C. albicans SC5314 [3]; 1× MIC): allowed the multiplication of C. albicans cells within 24 h
- proportion of cells able to multiply (culture drops on YPD agar after treatment) (C. albicans SC5314 [3]; 2× MIC): highly reduce the proportion of cells able to multiply
- growth of high-density C. albicans culture (C. albicans SC5314 [3]; 2× MIC): total or high growth inhibitions
- toxicity to various human cell lines [4]: impaired the viability of keratinocytes at higher concentrations
- hemolysis (sheep blood): did not cause hemolysis
- antifungal activity [5]: effectively inhibit the growth

Compound: CC[C@H](C)[C@H](NC(=O)[C@H](CCCCN)NC(=O)[C@H](CSC(C)(C)C)NC(=O)[C@H](CCCCN)NC(=O)[C@@H](NC(=O)[C@H](CCCCN)NC(=O)[C@@H](NC(=O)[C@H](CCC(=O)O)NC(C)=O)[C@@H](C)CC)[C@@H](C)CC)C(=O)N[C@@H](CCCCN)C(=O)N[C@@H](CCCCN)C(=O)N[C@H](C(=O)N[C@@H](CCCCN)C(=O)N[C@@H](CSC(C)(C)C)C(=O)N[C@@H](CCCCN)C(N)=O)[C@@H](C)CC [NFAPimpγGZ^S-tBu] (Ac-EIKIKC(tBu)KIKKIKC(tBu)K-NH2)
- MIC (A. fumigatus CBS 101355; CBS 101355, 72 h): 25 μg mL^–1
- MIC (C. albicans SC5314 [1]): 25 μg mL^–1
- growth of high-density C. albicans culture (C. albicans SC5314 [3]; 1× MIC): inhibited the growth
- proportion of cells able to multiply (culture drops on YPD agar after treatment) (C. albicans SC5314 [3]; 2× MIC): highly reduce the proportion of cells able to multiply

Compound: CC(=O)N[C@@H](CCC(=O)O)C(=O)N[C@@H](Cc1ccc(O)cc1)C(=O)N[C@@H](CCCCN)C(=O)NCC(=O)N[C@@H](CCCCN)C(=O)N[C@@H](CS)C(=O)N[C@@H](CCCCN)C(=O)N[C@H](C(=O)N[C@@H](CCCCN)C(=O)N[C@@H](CCCCN)C(=O)N[C@@H](CC(N)=O)C(=O)N[C@@H](CCCCN)C(=O)N[C@@H](CS)C(=O)N[C@@H](CCCCN)C(N)=O)[C@@H](C)O [NFAPimpγ] (Ac-EYKGKCKTKKNKCK-NH2)
- MIC (A. fumigatus CBS 101355; CBS 101355, 72 h): >200 μg mL^–1
- oxidation / disulfide bridge formation (in words) [2, 6]: total amount of the peptide was cyclized
- share of the peptide with intramolecular disulfide bridges (cyclic form) ([2]; –20 °C sample: 5 mg mL^–1 in sterile ddH2O stored at −20 °C for 7 days): approximately 60%
- proportion of cells able to multiply (culture drops on YPD agar after treatment) (C. albicans SC5314 [3]; 2× MIC): highly reduce the proportion of cells able to multiply
- toxicity to various human cell lines [4]: not toxic
- hemolysis (sheep blood): did not cause hemolysis
- antifungal activity [5]: effectively inhibit the growth

Compound: CC(=O)N[C@@H](CCC(=O)O)C(=O)N[C@@H](Cc1ccc(O)cc1)C(=O)N[C@@H](CCCCN)C(=O)NCC(=O)N[C@@H](CCCCN)C(=O)N[C@@H](CSC(C)(C)C)C(=O)N[C@@H](CCCCN)C(=O)N[C@H](C(=O)N[C@@H](CCCCN)C(=O)N[C@@H](CCCCN)C(=O)N[C@@H](CC(N)=O)C(=O)N[C@@H](CCCCN)C(=O)N[C@@H](CSC(C)(C)C)C(=O)N[C@@H](CCCCN)C(N)=O)[C@@H](C)O [NFAPimpγ^S-tBu] (Ac-EYKGKC(tBu)KTKKNKC(tBu)K-NH2)
- MIC (A. fumigatus CBS 101355; CBS 101355, 72 h): 25 μg mL^–1
- MIC (A. fumigatus CBS 101355; storage sample not specified, LCM, 72 h at 30 °C): 25 μg mL^–1
- MIC (C. albicans SC5314 [1]): 50 μg mL^–1
- growth of high-density C. albicans culture (C. albicans SC5314 [3]; 0.5× MIC, compared with unmodified NFAPimpγ): extended the time when the C. albicans culture started to multiply intensively
- proportion of cells able to multiply (culture drops on YPD agar after treatment) (C. albicans SC5314 [3]; 1–2× MIC): highly reduce the proportion of cells able to multiply

Compound: CC(=O)N[C@@H](CCC(=O)O)C(=O)N[C@@H](Cc1ccc(O)cc1)C(=O)N[C@@H](CCCCN)C(=O)NCC(=O)N[C@@H](CCC(=O)O)C(=O)N[C@@H](CS)C(=O)N[C@@H](Cc1ccccc1)C(=O)N[C@H](C(=O)N[C@@H](CCCCN)C(=O)N[C@@H](CC(=O)O)C(=O)N[C@@H](CC(N)=O)C(=O)N[C@H](C(=O)N[C@@H](CS)C(=O)N[C@@H](CCCCN)C(N)=O)[C@@H](C)O)[C@@H](C)O [NFAPγ] (Ac-EYKGECFTKDNTCK-NH2)
- MIC (A. fumigatus CBS 101355; CBS 101355, 72 h): > 200 μg mL^–1
- MIC (C. albicans SC5314 [1]): > 200 μg mL^–1
- oxidation / disulfide bridge formation (in words) [2, 6]: most of this peptide formed intramolecular, whereas a smaller part formed an intermolecular disulfide bond
- antifungal activity [5]: did not exhibit antifungal activity

Compound: Ac-EIKIKCKIKKIKSK-NH2 [NFAPimpγGZ^C13S]
- MIC (A. fumigatus CBS 101355; CBS 101355, 72 h): 50 μg mL^–1
- MIC (C. albicans SC5314 [1]): 25 μg mL^–1
- growth of high-density C. albicans culture (C. albicans SC5314 [3]; 2× MIC): total or high growth inhibitions

Compound: Ac-EIKIKSKIKKIKSK-NH2 [NFAPimpγGZ^C6S,C13S]
- MIC (A. fumigatus CBS 101355; CBS 101355, 72 h): 50 μg mL^–1
- MIC (C. albicans SC5314 [1]): 25 μg mL^–1
- growth of high-density C. albicans culture (C. albicans SC5314 [3]; 2× MIC): could not inhibit the growth

Compound: Ac-EYKGKCKTKKNKSK-NH2 [NFAPimpγ^C13S]
- MIC (A. fumigatus CBS 101355; CBS 101355, 72 h): >200 μg mL^–1
- MIC (C. albicans SC5314 [1]): 50 μg mL^–1
- share of the peptide in dimer form [2, 6]: approximately 60%
- growth of high-density C. albicans culture (C. albicans SC5314 [3]; [7]): could not fully inhibit the growth

Compound: Ac-EYKGKSKTKKNKSK-NH2 [NFAPimpγ^C6S,C13S]
- MIC (A. fumigatus CBS 101355; CBS 101355, 72 h): >200 μg mL^–1
- MIC (C. albicans SC5314 [1]): 50 μg mL^–1
- growth of high-density C. albicans culture (C. albicans SC5314 [3]; [7]): could not fully inhibit the growth
